Results as given in PMC7397269, “Synthesis and Evaluation of New Coumarin Derivatives as Antioxidant, Antimicrobial, and Anti-Inflammatory Agents” (Molecules, 2020).
Converted amounts (≈) assume the structure as drawn. Where two headings read alike, the source gives them in different places.

What was measured:
[1] = DPPH antioxidant assay (radical scavenging); type: biochemical; settings: mean ± SD (n = 3)
Procedure, shortened: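 Compounds, starting at 200 μg/mL, were mixed with 0.2 mM methanolic DPPH and incubated 30 min in the dark at 25 °C; absorbance was read at 515 nm. % inhibition is background-corrected against DPPH-only control, with IC50 from curve fit. Runs were triplicate (mean ± SD), with ascorbic acid as positive control.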

[2] = system: Escherichia coli ATCC 2592; assay: Agar well diffusion, E. coli; type: cell-based; settings: ATCC2592, 100 μL of 10 mg/mL in DMSO, read-out: diameter of inhibition zone, EC
Procedure, shortened: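 Agar well diffusion; NA for bacteria, SDA for yeast; inoculum 1 × 10^8 CFU/mL bacteria, 1 × 10^6 CFU/mL yeast. 100 μL of 10 mg/mL compound in DMSO per 10 mm well. 24 h, 37 °C; zone diameter, mm, n=3.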

[3] = system: Staphylococcus aureus ATCC 29213; assay: MIC, two-fold serial dilution, S. aureus; type: cell-based; settings: ATCC29213, read-out: Minimum inhibitory concentration, SA
Procedure, shortened: (§1)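 Compounds with agar-well inhibition zones >16 mm were retested by two-fold broth dilution at final concentrations of 1000, 500, 250 and 125 μg/mL. Inocula of 1 × 10^8 CFU/mL (bacteria) or 1 × 10^6 CFU/mL (yeast), 0.1 mL per 5 mL. MIC = lowest concentration without growth after 24 h at 37 °C.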

[4] = system: Bacillus subtilis ATCC 6633; assay: MIC, two-fold serial dilution, B. subtilis; type: cell-based; settings: ATCC6633, read-out: Minimum inhibitory concentration, BS
Procedure, shortened: as §1

[5] = system: Saccharomyces cerevisiae local isolate; assay: MIC, two-fold serial dilution, S. cerevisiae; type: cell-based; settings: read-out: Minimum inhibitory concentration, SC
Procedure, shortened: as §1

[6] = system: Candida albicans NRRL Y-477; assay: MIC, two-fold serial dilution, C. albicans; type: cell-based; settings: NRRLY477, read-out: Minimum inhibitory concentration, CA
Procedure, shortened: as §1

tested microorganisms = assay: MIC, summary over the tested microorganisms; type: cell-based; settings: two-fold serial dilution
Source text: The new molecules were individually tested for their antimicrobial activity in vitro against standard bacteria strains from the American Type Culture Collection (ATCC), namely, Staphylococcus aureus ATCC 29213, Bacillus subtilis ATCC 6633, Bacillus megaterium ATCC 9885 (Gram-positive), Escherichia coli ATCC 2592, and Pseudomonas aeruginosa ATCC 27,953 (Gram-negative). The compounds were also microbiologically tested against locally isolated Saccharomyces cerevisiae (yeast) and the standard Agricultural Research Service Culture Collection (NRRL) strain of the yeast-like pathogenic fungus Candida albicans NRRL Y-477. Primary screening was conducted using the agar well diffusion method using nutrient agar (NA) medium and Sabourand dextrose agar (SDA) medium for the tested pathological bacteria and yeast, respectively. […].
The bacteriostatic activity of the active compounds (having IZ > 16 mm) was then evaluated using the two-fold serial dilution technique. Two-fold serial dilutions of the tested compounds solutions were prepared using the proper nutrient broth to reach final concentrations of 1000, 500, 250, and 125 μg/mL. The tubes were then inoculated with the test microorganisms grown in their suitable broth at 37 °C for 24 h (1 × 10^8 CFU/mL for bacteria and 1 × 10^6 CFU/mL of yeast), 0.1 mL of the above inoculum was administered per 5 mL, and the tubes were incubated at 37 °C for 24 h. The lowest concentration showing no growth was taken as the MIC.

[7] = system: formaldehyde-induced rat paw oedema; assay: Formaldehyde-induced rat paw oedema (prophylactic); type: in vivo; settings: 2.5 mg/kg orally, 1 h after inducing inflammation
[8] = read-out: MIC against Gram-positive bacteria
[9] = two-fold serial dilution, S. cerevisiae
[10] = read-out: MIC against one or more tested microorganisms

Row | SMILES | IC50 [1] | zone of inhibition at 10000 µg/mL [2] [mm] | MIC [3] [µg/mL] | MIC [4] [µg/mL] | MIC [5] [µg/mL] | MIC [6] [µg/mL] | MIC (tested microorganisms; [8]) [µg/mL] | % inhibition of paw oedema [7] [%] | MIC [5, 9] [µg/mL] | MIC (tested microorganisms; [10]) [µg/mL] | MIC (tested microorganisms; read-out: MIC against all microorganisms) [µg/mL]
1 | Cc1ccc2oc(=O)c3c(c2c1)OC(N)=C(C#N)C3c1ccc([N+](=O)[O-])cc1 (racemic) [2a, (±)-2-Amino-9-methyl-4-(4-nitrophenyl)-5-oxo-4H,5H-pyrano[3,2-c]chromene-3-carbonitrile] | — ((—): inactive (IC50 > 200 μg/mL)) | 18 | 500 (≈ 1330 µM) | 500 (≈ 1330 µM) | 500 (≈ 1330 µM) | 500 (≈ 1330 µM) | 500 to 1000 (≈ 1330 to 2660 µM) |  |  |  | 
2 | Cc1ccc2oc(=O)c3c(c2c1)OC(N)=C(C#N)C3c1ccco1 (racemic) [2b, (±)-2-Amino-4-(furan-2-yl)-9-methyl-5-oxo-4H,5H-pyrano[3,2-c]chromene-3-carbonitrile] | — ((—): inactive (IC50 > 200 μg/mL)) | 18 | 500 (≈ 1560 µM) | 500 (≈ 1560 µM) | 500 (≈ 1560 µM) | 500 (≈ 1560 µM) | 500 to 1000 (≈ 1560 to 3120 µM) | 6.57 |  |  | 
3 | COc1cc(/C=N/C2=C(C#N)C(c3ccc([N+](=O)[O-])cc3)c3c(c4cc(C)ccc4oc3=O)O2)cc(OC)c1OC (racemic) [5c, (±)-9-methyl-4-(4-nitrophenyl)-5-oxo-2-((3,4,5-trimethoxybenzylidene)amino)-4H,5H-pyrano[3,2-c]chromene-3-carbonitrile] | — ((—): inactive (IC50 > 200 μg/mL)) | 24 | 500 (≈ 903 µM) | 500 (≈ 903 µM) | 500 (≈ 903 µM) | 500 (≈ 903 µM) |  |  |  |  | 
4 | Cc1ccc2oc(=O)c3c(c2c1)OC(/N=C/c1ccc(Cl)cc1Cl)=C(C#N)C3c1ccco1 (racemic) [5f, (±)-2-((2,4-dichlorobenzylidene)amino)-4-(furan-2-yl)-9-methyl-5-oxo-4H,5H-pyrano[3,2-c]chromene-3-carbonitrile] | — ((—): inactive (IC50 > 200 μg/mL)) | 20 | 500 (≈ 1050 µM) | 500 (≈ 1050 µM) | 500 (≈ 1050 µM) | 500 (≈ 1050 µM) | 500 to 1000 (≈ 1050 to 2100 µM) |  |  |  | 
5 | NS(=O)(=O)c1ccc(NS(=O)(=O)c2c(O)c3cc(Cl)ccc3oc2=O)cc1 [7a, 6-Chloro-4-hydroxy-2-oxo-N-(4-sulfamoylphenyl)-2H-chromene-3-sulfonamide] | 93.12 ± 0.727 µg/mL (≈ 216 µM) | 28 | 250 (≈ 580 µM) | 250 (≈ 580 µM) |  | 250 (≈ 580 µM) |  |  | 250 (≈ 580 µM) |  | 
6 | O=c1oc2ccc(Cl)cc2c(O)c1S(=O)(=O)Nc1ccc(S(=O)(=O)Nc2ncccn2)cc1 [7c, 6-Chloro-4-hydroxy-2-oxo-N-(4-(N-(pyrimidin-2-yl)sulfamoyl)phenyl)-2H-chromene-3-sulfonamide] | 120.12 ± 4.629 µg/mL (≈ 236 µM) | 30 | 125 (≈ 246 µM) | 125 (≈ 246 µM) |  | 125 (≈ 246 µM) |  |  | 125 (≈ 246 µM) | 125 (≈ 246 µM) | 
7 | Cc1ccc2oc(=O)c(S(=O)(=O)Nc3ccc(S(=O)(=O)Nc4ncccn4)cc3)c(O)c2c1 [7d, 4-Hydroxy-6-methyl-2-oxo-N-(4-(N-(pyrimidin-2-yl)sulfamoyl)phenyl)-2H-chromene-3-sulfonamide] | 112.19 ± 4.391 µg/mL (≈ 230 µM) | 28 | 125 (≈ 256 µM) | 125 (≈ 256 µM) |  | 125 (≈ 256 µM) |  |  | 125 (≈ 256 µM) | 125 (≈ 256 µM) | 125 (≈ 256 µM)
8 | O=c1oc2ccc(Cl)cc2c(O)c1S(=O)(=O)Nc1ccc(S(=O)(=O)Nc2nccs2)cc1 [7e, 6-Chloro-4-hydroxy-2-oxo-N-(4-(N-(thiazol-2-yl)sulfamoyl)phenyl)-2H-chromene-3-sulfonamide] | 71.67 ± 3.231 µg/mL (≈ 139 µM) | 20 | 500 (≈ 973 µM) | 500 (≈ 973 µM) |  | 500 (≈ 973 µM) |  |  | 1000 (≈ 1950 µM) |  | 
9 | Cc1ccc2oc(=O)c(S(=O)(=O)Nc3ccc(S(=O)(=O)Nc4nccs4)cc3)c(O)c2c1 [7f, 4-Hydroxy-6-methyl-2-oxo-N-(4-(N-(thiazol-2-yl)sulfamoyl)phenyl)-2H-chromene-3-sulfonamide] | 83.52 ± 1.849 µg/mL (≈ 169 µM) | 23 | 250 (≈ 507 µM) | 250 (≈ 507 µM) |  | 500 (≈ 1010 µM) |  | 17.18 | 250 (≈ 507 µM) |  | 
10 | O=c1oc2ccc(Cl)cc2c(O)c1S(=O)(=O)Nc1ccccc1 [8a, 6-Chloro-4-hydroxy-2-oxo-N-phenyl-2H-chromene-3-sulfonamide] | 14.51 ± 1.827 µg/mL (≈ 41.2 µM) | 25 | 500 (≈ 1420 µM) | 250 (≈ 711 µM) |  | 250 (≈ 711 µM) |  |  | 250 (≈ 711 µM) |  | 
11 | Cc1ccc2oc(=O)c(S(=O)(=O)Nc3ccccc3)c(O)c2c1 [8b, 4-Hydroxy-6-methyl-2-oxo-N-phenyl-2H-chromene-3-sulfonamide] | 19.25 ± 4.171 µg/mL (≈ 58.1 µM) | 18 | 1000 (≈ 3020 µM) | 1000 (≈ 3020 µM) |  | 1000 (≈ 3020 µM) |  |  | 1000 (≈ 3020 µM) |  | 
12 | O=c1oc2ccc(Cl)cc2c(O)c1S(=O)(=O)Nc1ccc(O)cc1 [8c, 6-Chloro-4-hydroxy-N-(4-hydroxyphenyl)-2-oxo-2H-chromene-3-sulfonamide] | 3.87 ± 0.409 µg/mL (≈ 10.5 µM) | 27 | 125 (≈ 340 µM) | 125 (≈ 340 µM) |  | 125 (≈ 340 µM) |  | 9.45 | 125 (≈ 340 µM) | 125 (≈ 340 µM) | 
13 | Cc1ccc2oc(=O)c(S(=O)(=O)Nc3ccc(O)cc3)c(O)c2c1 [8d, 4-Hydroxy-N-(4-hydroxyphenyl)-6-methyl-2-oxo-2H-chromene-3-sulfonamide] | 4.30 ± 0.531 µg/mL (≈ 12.4 µM) | 31 | 125 (≈ 360 µM) | 125 (≈ 360 µM) |  | 125 (≈ 360 µM) |  |  | 125 (≈ 360 µM) | 125 (≈ 360 µM) | 
